Experimental data as given in patent publication US12590953B2, “Methods for screening cereblon modifying compounds” (CELGENE CORPORATION, priority 2018, dated 2026).
Where two headings read alike, the source gives them in different places.

What was measured:
Ikaros = Ikaros (Homo sapiens, UniProt Q13422+Q96SW2); assay: Degradation of Ikaros (data not shown)
[1] = target: T1, ZFP91 cereblon-binding zinc finger (a.a. 395-423) / human cereblon (Homo sapiens, UniProt Q96JP5+Q96SW2); assay: In vitro ubiquitination of ZFP91 zinc finger by human cereblon; assay type: biochemical; conditions: thalidomide vs DMSO
T1 construct: Human cereblon-DDB1 (cereblon amino acids 40-442 and full length DDB1); ZZ-domain-6xHis-thrombin site (N, cleaved yes); made in house; host or cells: SF9 insect cells (cereblon-DDB1, Cul4A-Rbx1); E. coli BL21 (DE3) Star (MBP-zinc finger)
Protocol: (§1) Glycine degron-containing zinc fingers are highlighted with stars. […] Ubiquitination reactions were separated by SDS-PAGE followed by anti-MBP western blot. […] Results in panels b and c are representative of 3 independent experiments.
Purified E1, E2, ubiquitin, Cul4A-Rbx1, cereblon-DDB1, and GSPT1 proteins were used to reconstitute the ubiquitination of MBP-fused WT and mutant proteins in vitro. Substrate proteins purified by maltose affinity resin (NEB) were incubated at an approximate concentration of 30 uM. Ubiquitination components described briefly: Human cereblon-DDB1 (cereblon amino acids 40-442 and full length DDB1) and 6×his-DDB1 alone were co-expressed in SF9 insect cells in the presence of 50 μM zinc acetate, and purified by nickel affinity resin (Qiagen), HiTrap ANX column ion exchange (GE Healthcare), and Sephacryl 400 16/60 size exclusion chromatography (GE healthcare). Human full length Cul4A and Rbx1 were co-expressed in SF9 insect cells and purified by nickel affinity resin and Superdex 200 16/60 size exclusion chromatography. Purified recombinant human Ube1 E1 (E-305), UbcH5a E2 (E2-616), and ubiquitin (U-100H) were purchased from R&D systems. […]

rabbit embryos = conditions: in vivo
Protocol: All animals were housed and fed according to IACUC approved procedures. The rabbits either remained untreated (n=4 per time point) or received 180 mg/kg of Thalidomide per day (n=5 per time point) starting on GD7. Dose levels and sensitive gestation windows were selected based on previously reported finding in Thalidomide teratogenicity studies (Christian MS, birth defect research, 2007)
Resorption sites, embryo mortality and gross observations were recorded during embryo collection. Embryo mortality was based on the absence of a heartbeat. There were no resorption sites or embryo and placental abnormalities in the control group. […] On Day 8, all 41 implantation sites from 5 rabbits appeared normal. On Day 9, 1/5 rabbits were affected and there was 1 resorption site out of a total of 52 implantation sites. On Day 10, 1/5 rabbit was affected and there was 1 resorption site out of a total of 38 implantation sites. On Day 11, 3/5 rabbits were affected, with 2 resorptions sites (5.41%) and 2 dead embryos (5.41%) out of 37 implantation sites. On Day 12, 5/5 rabbits were affected, with 3 resorption sites (6.98%) and 11 dead embryos (25.58%) out of […] implantation sites.
Cesarean sections were performed in each rabbit 3 hours after the last Thalidomide dose to ensure maximum plasma concentration of Thalidomide (CMax=3 hours) (Hui et al, Reproductive Toxicology, 2014). The uteri were removed, the implantation sites were counted and mortality and resorptions noted during embryo dissection. GD8 embryos were not dissected and were fixed in situ attached to the placental site and uterine wall. The entire implantation site was processed, embedded in paraffin and sectioned at 4 microns for immunohistochemistry. GD 9-12 embryos were collected with fetal membranes, fixed in 10% Neutral Buffered Formalin for 24 hours and transferred to 70% Ethanol. After fixation fetal membranes were removed and embryos processed, embedded in paraffin and sectioned at 4 microns for immunohistochemistry and in situ hybridization procedures.
More specifically, adult female New Zealand white rabbits between 5 and 8 months of age were time mated for embryo collection at Gestation Days (GD) 8, 9, 10, 11 and 12 as shown in Table 1 below.

[2] = tested on: ZFP91 cereblon-binding zinc finger (a.a. 395-423) / rabbit cereblon; assay: In vitro ubiquitination of ZFP91 zinc finger by rabbit cereblon; assay type: biochemical; conditions: with thalidomide
Protocol: as §1
Full length human cereblon, full length mouse cereblon, and full length rabbit cereblon were co-expressed with full length human DDB1 in SF9 insect cells in ESF921 medium in the presence of 50 uM zinc acetate. Cells were resuspended in buffer containing 50 mM Tris-HCl pH 7.5, 500 mM NaCl, 10 mM imidazole, 10% glycerol, 2 mM TCEP, 1× Protease Inhibitor Cocktail (San Diego Bioscience), and 40,000 U Benzonase (Novagen), and sonicated for 30 s. Lysate was clarified by high speed spin at 30,000 rpm for 30 minutes, and clarified lysate was incubated with Ni-NTA affinity resin (Qiagen) for 1 hour. Complex was eluted with buffer containing 500 mM imidazole, and the ZZ-domain-6×His tag removed by thrombin cleavage (Enzyme Research) overnight, combined with dialysis in 10 mM imidazole buffer. Cleaved eluate was incubated with Ni-NTA affinity resin (Qiagen), and the flow-through diluted to 200 mM NaCl for further purification over a Sephacryl S-400 16/60 column (GE Healthcare) in buffer containing 10 mM HEPES pH 7.0, 240 mM NaCl, and 3 mM TECP. […]

[3] = female, New Zealand white, 8 gestation day
[4] = female, New Zealand white, 9 gestation day
[5] = female, New Zealand white, 10 gestation day
[6] = female, New Zealand white, 11 gestation day
[7] = female, New Zealand white, 12 gestation day

T1 sequence (Q96SW2 40-442 limits assumed): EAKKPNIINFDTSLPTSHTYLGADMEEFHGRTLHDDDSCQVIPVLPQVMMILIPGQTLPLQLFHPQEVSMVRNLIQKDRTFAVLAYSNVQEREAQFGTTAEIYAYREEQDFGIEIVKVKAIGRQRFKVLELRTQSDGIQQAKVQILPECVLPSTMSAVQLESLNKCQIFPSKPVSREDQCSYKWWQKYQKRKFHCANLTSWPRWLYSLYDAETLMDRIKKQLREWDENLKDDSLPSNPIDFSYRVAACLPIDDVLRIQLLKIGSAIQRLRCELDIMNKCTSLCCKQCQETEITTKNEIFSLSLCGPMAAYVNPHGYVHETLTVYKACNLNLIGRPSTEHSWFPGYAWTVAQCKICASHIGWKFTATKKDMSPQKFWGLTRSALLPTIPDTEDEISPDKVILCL
T1 sequence (Q96JP5 395-423 limits assumed): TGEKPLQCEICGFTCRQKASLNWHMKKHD
T1 sequence (Q16531 whole entry partner, the tested form may be a part): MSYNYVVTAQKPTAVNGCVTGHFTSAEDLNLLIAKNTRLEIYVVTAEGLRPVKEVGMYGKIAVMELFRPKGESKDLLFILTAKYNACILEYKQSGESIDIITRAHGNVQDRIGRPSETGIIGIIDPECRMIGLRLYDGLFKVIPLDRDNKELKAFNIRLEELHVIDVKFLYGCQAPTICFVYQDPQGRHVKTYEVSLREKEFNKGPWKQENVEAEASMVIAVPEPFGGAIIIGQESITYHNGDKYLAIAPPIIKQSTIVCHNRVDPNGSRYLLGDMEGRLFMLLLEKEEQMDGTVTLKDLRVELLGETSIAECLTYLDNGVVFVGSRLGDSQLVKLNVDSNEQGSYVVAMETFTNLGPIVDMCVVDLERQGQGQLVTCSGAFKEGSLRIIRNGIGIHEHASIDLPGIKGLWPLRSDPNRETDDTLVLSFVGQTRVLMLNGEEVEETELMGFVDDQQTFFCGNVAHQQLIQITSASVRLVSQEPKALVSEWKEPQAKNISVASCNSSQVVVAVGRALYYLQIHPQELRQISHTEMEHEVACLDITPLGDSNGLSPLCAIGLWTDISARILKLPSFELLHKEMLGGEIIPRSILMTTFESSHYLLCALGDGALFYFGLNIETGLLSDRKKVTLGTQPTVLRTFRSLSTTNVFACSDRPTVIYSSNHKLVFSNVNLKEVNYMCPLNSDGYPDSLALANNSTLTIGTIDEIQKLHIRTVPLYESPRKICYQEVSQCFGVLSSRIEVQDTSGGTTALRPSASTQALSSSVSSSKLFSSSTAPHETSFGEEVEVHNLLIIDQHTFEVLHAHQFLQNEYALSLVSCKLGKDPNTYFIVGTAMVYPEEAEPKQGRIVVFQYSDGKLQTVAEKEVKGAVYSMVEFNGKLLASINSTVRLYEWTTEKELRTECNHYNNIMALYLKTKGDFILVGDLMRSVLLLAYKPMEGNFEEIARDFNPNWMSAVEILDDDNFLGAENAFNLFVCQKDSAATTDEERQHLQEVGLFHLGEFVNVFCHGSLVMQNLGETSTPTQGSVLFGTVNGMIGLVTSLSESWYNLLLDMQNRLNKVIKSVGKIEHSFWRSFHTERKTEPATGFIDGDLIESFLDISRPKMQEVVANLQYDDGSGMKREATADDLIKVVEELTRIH
T1 sequence (Q13619 whole entry partner, the tested form may be a part): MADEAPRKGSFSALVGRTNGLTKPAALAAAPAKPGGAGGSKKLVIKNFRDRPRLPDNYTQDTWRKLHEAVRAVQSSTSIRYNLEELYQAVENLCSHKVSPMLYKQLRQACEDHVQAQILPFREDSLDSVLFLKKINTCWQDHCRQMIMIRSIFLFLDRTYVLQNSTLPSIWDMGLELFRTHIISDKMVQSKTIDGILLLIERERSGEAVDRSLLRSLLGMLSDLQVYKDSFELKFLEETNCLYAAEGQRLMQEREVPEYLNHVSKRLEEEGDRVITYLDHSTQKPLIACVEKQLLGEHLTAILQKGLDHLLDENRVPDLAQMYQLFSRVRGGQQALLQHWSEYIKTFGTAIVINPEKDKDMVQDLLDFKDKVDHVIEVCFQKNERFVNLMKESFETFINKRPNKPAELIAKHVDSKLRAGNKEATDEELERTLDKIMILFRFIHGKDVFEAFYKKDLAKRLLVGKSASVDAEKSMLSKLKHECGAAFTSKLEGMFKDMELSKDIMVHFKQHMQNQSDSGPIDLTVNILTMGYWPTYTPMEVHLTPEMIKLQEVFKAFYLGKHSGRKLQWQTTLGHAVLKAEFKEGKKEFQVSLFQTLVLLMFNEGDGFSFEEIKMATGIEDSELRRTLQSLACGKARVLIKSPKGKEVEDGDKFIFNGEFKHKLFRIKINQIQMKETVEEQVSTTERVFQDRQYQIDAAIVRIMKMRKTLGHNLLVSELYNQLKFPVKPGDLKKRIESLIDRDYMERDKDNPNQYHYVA
T1 sequence (P62877 whole entry partner, the tested form may be a part): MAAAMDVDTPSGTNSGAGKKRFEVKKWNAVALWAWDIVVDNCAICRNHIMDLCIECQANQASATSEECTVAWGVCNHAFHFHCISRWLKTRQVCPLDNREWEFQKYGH
Ikaros, sequence (Q13422 whole entry, species assumed): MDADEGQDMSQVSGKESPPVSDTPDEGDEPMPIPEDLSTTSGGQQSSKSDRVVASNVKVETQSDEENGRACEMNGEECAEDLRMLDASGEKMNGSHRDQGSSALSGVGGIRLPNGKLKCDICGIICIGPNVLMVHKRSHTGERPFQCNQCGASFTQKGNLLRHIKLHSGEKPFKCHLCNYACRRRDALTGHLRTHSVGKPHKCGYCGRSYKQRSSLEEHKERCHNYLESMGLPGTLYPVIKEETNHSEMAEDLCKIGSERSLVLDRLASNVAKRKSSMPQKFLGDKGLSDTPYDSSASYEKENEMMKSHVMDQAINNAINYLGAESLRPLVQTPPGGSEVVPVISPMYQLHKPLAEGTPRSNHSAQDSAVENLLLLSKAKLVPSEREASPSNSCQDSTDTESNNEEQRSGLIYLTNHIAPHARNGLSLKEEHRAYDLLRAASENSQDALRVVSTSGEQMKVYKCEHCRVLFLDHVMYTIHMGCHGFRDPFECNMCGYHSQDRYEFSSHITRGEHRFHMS
Ikaros, sequence (Q96SW2 whole entry, species assumed): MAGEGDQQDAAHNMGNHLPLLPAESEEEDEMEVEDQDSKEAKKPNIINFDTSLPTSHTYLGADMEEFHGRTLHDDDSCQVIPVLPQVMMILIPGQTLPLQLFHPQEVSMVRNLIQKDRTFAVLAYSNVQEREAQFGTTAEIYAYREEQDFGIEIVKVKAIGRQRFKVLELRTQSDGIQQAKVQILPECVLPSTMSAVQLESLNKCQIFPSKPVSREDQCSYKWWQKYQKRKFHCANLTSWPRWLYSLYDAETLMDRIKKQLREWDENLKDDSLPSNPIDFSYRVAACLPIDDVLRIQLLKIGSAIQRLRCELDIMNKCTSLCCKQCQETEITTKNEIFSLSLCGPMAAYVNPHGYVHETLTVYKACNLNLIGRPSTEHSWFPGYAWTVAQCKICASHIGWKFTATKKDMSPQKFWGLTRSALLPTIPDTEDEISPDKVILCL
Ikaros, sequence (Q16531 whole entry partner, species assumed): as the sequence (Q16531 whole entry partner, the tested form may be a part) above

With `O=C1CCC(N2C(=O)c3ccccc3C2=O)C(=O)N1` (stereo not shown) [thalidomide] the “Triggering the degradation of Ikaros” value (Ikaros) was “only moderately active in triggering the degradation of Ikaros”, the “Ubiquitination of ZFP91 zinc finger (a.a. 395-423) by human cereblon” value [1] was “efficiently ubiquitinated by human cereblon in a thalidomide-dependent manner” and the “Dead (dead embryos)” value (rabbit embryos; female, New Zealand white) was 0. The “Resorbed, share of implantation sites” value (rabbit embryos; female, New Zealand white) was 1.92%, the “Average number of implantation sites” value (rabbit embryos; [3]) was 8.2 and the “Resorbed (resorption sites)” value (rabbit embryos; [3]) was 0. The “Sites/Rabbit (implantation sites per individual rabbit; R = Resorbed, D = Dead)” value (rabbit embryos; [3]) was 9, 9, 8, 7, 8, the “Average number of implantation sites” value (rabbit embryos; [4]) was 10.4 and the Rabbits affected (rabbit embryos; [4]) was 1/5. The “Resorbed (resorption sites)” value (rabbit embryos; [4]) was 1, the “Average number of implantation sites” value (rabbit embryos; [5]) was 8.75 and the “Dead (dead embryos)” value (rabbit embryos; [5]) was 1. For the same molecule, the “Dead, share of implantation sites” value (rabbit embryos; [5]) was 0.03%, the Rabbits affected (rabbit embryos; [5]) was 1/5 and the “Average number of implantation sites” value (rabbit embryos; [6]) was 7.4. The “Dead (dead embryos)” value (rabbit embryos; [6]) was 2, the “Dead, share of implantation sites” value (rabbit embryos; [6]) was 5.41% and the Rabbits affected (rabbit embryos; [6]) was 3/5. The “Resorbed (resorption sites)” value (rabbit embryos; [6]) was 2, the “Resorbed, share of implantation sites” value (rabbit embryos; [6]) was 5.41% and the “Average number of implantation sites” value (rabbit embryos; [7]) was 8.8. For the same molecule, the “Dead (dead embryos)” value (rabbit embryos; [7]) was 11, the “Dead, share of implantation sites” value (rabbit embryos; [7]) was 25.58% and the Rabbits affected (rabbit embryos; [7]) was 5/5. For the same molecule, the “Resorbed (resorption sites)” value (rabbit embryos; [7]) was 3, the “Resorbed, share of implantation sites” value (rabbit embryos; [7]) was 6.98% and the “Implantation frequency vs control” value (rabbit embryos) was “no significant differences in implantation frequency”. For the same molecule, the “Ubiquitination of ZFP91 zinc finger (a.a. 395-423) by rabbit cereblon” value [2] was “efficiently ubiquitinated by human and rabbit cereblon”.
